Experimental data from patent publication US11510962B2, “Manufacture of degarelix” (Ferring B.V., priority 2012, dated 2022).
Values belong to the molecule of their own block, whether it stands above or below them. Square brackets hold non-standard residues; d marks the D form. Peptide text beside a SMILES is read from it. * marks the point of attachment. dPhe(4-NHCONH2) = NC(=O)Nc1ccc(C[C@@H](N)C(=O)O)cc1; Dihydroorotyl(S) = O=C1C[C@@H](C(=O)*)NC(=O)N1; dPhe(4-Cl) = N[C@H](Cc1ccc(Cl)cc1)C(=O)O; Phe(4-NH2) = Nc1ccc(C[C@H](N)C(=O)O)cc1; d2Nal = N[C@H](Cc1ccc2ccccc2c1)C(=O)O; Lys(iPr) = CC(C)NCCCC[C@H](N)C(=O)O; d3Pal = N[C@H](Cc1cccnc1)C(=O)O

Tests used:
[1] = De-aggregation experiments with acetic acid: viscosity of degarelix stock solution; format: physicochemical
Method: Determination of the viscosity of the drug substance and drug product solution is based on the current edition of Ph. Eur. and USP procedure using a rotating viscometer equipped with a cone-plate measuring system with D=60 mm and 1°. The shear rate is increased from 0 to 500 s in 20 steps, using a controlled rate (CR) rotation step program at a constant temperature of 20±0.2° C., making certain that the system reaches equilibrium before the viscosity is recorded at a shear rate of 500 s^−1. During the de-aggregation studies the temperature was set to 5, 20, 25, or 35° C. The concentration of degarelix drug substance was 5, 15, 25, or 35 mg/ml. The concentration of acetic acid is 13, 15, 18, 20, 22, 26, 30, 35 or 40%. Viscosity: Take out 1.2 ml at T=1, 60, 120, and 240 min. De-aggregation Experiment Protocol, total volume 20 or 69 ml: • 1. Weigh the required amount of stock solution into a beaker. Equilibrate to the desired temperature • 2. Weigh the required amount of acetic acid (100%) into a beaker • 3. Mix the acetic acid (100%) with 3 or 10 ml of milli-Q water and equilibrate to the desired temperature • 4. Mix the degarelix stock solution with the acetic acid/milli-Q water solution • 5. Fill milli-Q water up to 20 or 69 ml • 6. Mix thoroughly • 7. Take samples for viscosity and optical density as described above. Note the appearance of the solution during the experiment

[2] = De-aggregation experiments with acetic acid: final optical density; format: physicochemical
Method: During the de-aggregation studies the temperature was set to 5, 20, 25, or 35° C. The concentration of degarelix drug substance was 5, 15, 25, or 35 mg/ml. The concentration of acetic acid is 13, 15, 18, 20, 22, 26, 30, 35 or 40%. Optical Density (OD): A sample (1 ml) should be taken at the end of each experiment for measurement of the final optical density. De-aggregation Experiment Protocol, total volume 20 or 69 ml: • 1. Weigh the required amount of stock solution into a beaker. Equilibrate to the desired temperature • 2. Weigh the required amount of acetic acid (100%) into a beaker • 3. Mix the acetic acid (100%) with 3 or 10 ml of milli-Q water and equilibrate to the desired temperature • 4. Mix the degarelix stock solution with the acetic acid/milli-Q water solution • 5. Fill milli-Q water up to 20 or 69 ml • 6. Mix thoroughly • 7. Take samples for viscosity and optical density as described above. Note the appearance of the solution during the experiment

[3] = in vivo
[4] = biological target: GnRH receptors in the pituitary (Homo sapiens, UniProt P30968); conditions: prostate cancer patients; literature; cited from earlier work
Chain of GnRH receptors in the pituitary (P30968 whole entry): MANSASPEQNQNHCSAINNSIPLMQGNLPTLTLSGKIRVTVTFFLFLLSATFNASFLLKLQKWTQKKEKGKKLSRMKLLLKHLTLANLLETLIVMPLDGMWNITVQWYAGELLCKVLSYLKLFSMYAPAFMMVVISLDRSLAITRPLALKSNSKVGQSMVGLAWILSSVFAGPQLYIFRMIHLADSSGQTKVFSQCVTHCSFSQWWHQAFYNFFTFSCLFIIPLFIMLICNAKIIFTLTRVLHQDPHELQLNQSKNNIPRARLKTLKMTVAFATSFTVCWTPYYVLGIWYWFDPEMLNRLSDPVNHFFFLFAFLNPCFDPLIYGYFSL

[5] = Reconstitution of degarelix vials with WFI/surfactant solution: OD (absorbance) at 350 nm; format: physicochemical; conditions: vials reconstituted to 60 mg/ml degarelix, surfactant 1 mg/ml (0.1%) in WFI, 30 min, 60 min, 120 min, 24 hours
Method: Procedure: • Degarelix batch reconstituted using WFI (as control) and using WFI containing the surfactants. The vials are reconstituted to 60 mg/ml degarelix.

[6] = In-vitro release profile (IVD assay) of degarelix vials reconstituted with WFI+Tween 20; format: physicochemical; conditions: 40 mg/ml degarelix; Tween 20 at 1, 0.5, 0.25 mg/ml; control WFI
Method: Tween 20 concentrations tested:
1 mg/ml; 0.5 mg/ml; 0.25 mg/ml;

[7] = 5 °C, degarelix 5 mg/ml, AcOH 40%
[8] = 5 °C, degarelix 25 mg/ml, AcOH 13%
[9] = 5 °C, degarelix 25 mg/ml, AcOH 15%
[10] = 5 °C, degarelix 25 mg/ml, AcOH 20%
[11] = 5 °C, degarelix 35 mg/ml, AcOH 26%
[12] = 20 °C, degarelix 15 mg/ml, AcOH 30%
[13] = 25 °C, degarelix 25 mg/ml, AcOH 20%
[14] = 35 °C, degarelix 25 mg/ml, AcOH 15%
[15] = 35 °C, degarelix 25 mg/ml, AcOH 18%
[16] = 35 °C, degarelix 25 mg/ml, AcOH 20%
[17] = 35 °C, degarelix 35 mg/ml, AcOH 22%
[18] = 35 °C, degarelix 35 mg/ml, AcOH 26%
[19] = 35 °C, degarelix 35 mg/ml, AcOH 30%
[20] = 35 °C, degarelix 35 mg/ml, AcOH 35%

Molecule: CC(=O)N[C@H](Cc1ccc2ccccc2c1)C(=O)N[C@H](Cc1ccc(Cl)cc1)C(=O)N[C@H](Cc1cccnc1)C(=O)N[C@@H](CO)C(=O)N[C@@H](Cc1ccc(NC(=O)[C@@H]2CC(=O)NC(=O)N2)cc1)C(=O)N[C@H](Cc1ccc(NC(N)=O)cc1)C(=O)N[C@@H](CC(C)C)C(=O)N[C@@H](CCCCNC(C)C)C(=O)N1CCC[C@H]1C(=O)N[C@H](C)C(N)=O [Degarelix, D-Alaninamide, N-acetyl-3-(2-naphthalenyl)-D-alanyl-4-chloro-D-phenylaanyl-3-(3-pyridinyl)-D-alanyl-L-seryl-4-[[[(4S)-hexahydro-2,6-dioxo-4-pyrimidinyl]carbonyl]amino]-L-phenylalanyl-4-[(aminocarbonyl)amino]-D-phenylaanyl-L-leucyl-N6-(1-methylethyl)-L-lysyl-L-prolyl-] (Ac-[d2Nal][dPhe(4-Cl)][d3Pal]S[Phe(4-NH2)](Dihydroorotyl(S))[dPhe(4-NHCONH2)]L[Lys(iPr)]P[dA]-NH2)
Viscosity @ 500 Time = 240 min [1, 7]: 1.9 mPas * s | Viscosity @ 500 Time = 240 min [1, 8]: 2.3 mPas * s | Viscosity @ 500 Time = 240 min [1, 9]: 1.9 mPas * s | Viscosity @ 500 Time = 240 min [1, 10]: 1.7 mPas * s | Viscosity @ 500 Time = 240 min [1, 11]: 1.9 mPas * s | Viscosity @ 500 Time = 240 min [1, 12]: 1.8 mPas * s | Viscosity @ 500 Time = 240 min [1, 13]: 2.0 mPas * s | Viscosity @ 500 Time = 240 min [1, 14]: 7.2 mPas * s | Viscosity @ 500 Time = 240 min [1, 15]: 2.1 mPas * s | Viscosity @ 500 Time = 240 min [1, 16]: 1.7 mPas * s | Viscosity @ 500 Time = 240 min [1, 17]: 2.1 mPas * s | Viscosity @ 500 Time = 240 min [1, 18]: 1.9 mPas * s | Viscosity @ 500 Time = 240 min [1, 19]: 2.0 mPas * s | Viscosity @ 500 Time = 240 min [1, 20]: 2.1 mPas * s | Optical Density Time = 240 min [2, 7]: 0.00 | Optical Density Time = 240 min [2, 8]: 0.10 | Optical Density Time = 240 min [2, 9]: 0.09 | Optical Density Time = 240 min [2, 10]: 0.06 | Optical Density Time = 240 min [2, 11]: 0.08 | Optical Density Time = 240 min [2, 12]: 0.03 | Optical Density Time = 240 min [2, 13]: 0.10 | Optical Density Time = 240 min [2, 14]: 0.86 | Optical Density Time = 240 min [2, 15]: 0.07 | Optical Density Time = 240 min [2, 16]: 0.05 | Optical Density Time = 240 min [2, 17]: 0.13 | Optical Density Time = 240 min [2, 18]: 0.10 | Optical Density Time = 240 min [2, 19]: 0.07 | Optical Density Time = 240 min [2, 20]: 0.08 | sustained release from the depot [3]: sustained release of the active over months | testosterone surge or clinical flare [4]: does not cause testosterone surge or clinical flare

in-vitro release profiles [6]: not altered
Molecule: Polysorbate 20 [Tween 20]
optical density versus control [5]: reduced the optical density to a level below the control
